pIC50, pKi: −log10 of the molar value.
Experiments:
[1] = Antioxidant activity assessed as trolox equivalent of ORAC radical scavenging activity by ORAC assay; format: functional
Acetylcholinesterase [2] = target: Acetylcholinesterase (Electrophorus electricus, UniProt O42275); assay: Inhibition of electric eel AChE using ATCI and BTCI as substrate preincubated for 5 mins followed by substrate addition and measured after 3 mins by DTNB-reagent based Ellman's method
Cholinesterase [3] = target: Cholinesterase (Equus caballus, UniProt P81908); assay: Inhibition of equine serum BuChE using ATCI and BTCI as substrate preincubated for 5 mins followed by substrate addition and measured after 3 mins by DTNB-reagent based Ellman's method; format: cell-free
[4] = Selectivity index, ratio of IC50 for inhibition of equine serum BuChE to inhibition of electric eel AChE
[5] = target: Acetylcholinesterase (Electrophorus electricus) (UniProt O42275); assay: Inhibition of electric eel AChE at 100 uM using ATCI and BTCI as substrate preincubated for 5 mins followed by substrate addition and measured after 3 mins by DTNB-reagent based Ellman's method relative to control; details: time 8.0 min
[6] = Selectivity index, ratio of IC50 for inhibition of human erythrocyte AChE to IC50 for inhibition of human serum BuChE
in vitro = details: PAMPA
Description: Permeability coefficient of the compound across blood brain barrier incubated for 18 hrs by PAMPA assay

Cholinesterase [7] = target: T1, Cholinesterase (Homo sapiens, UniProt P06276); assay: Inhibition of human serum BuChE using ATCI and BTCI as substrate preincubated for 5 mins followed by substrate addition and measured after 3 mins by DTNB-reagent based Ellman's method; format: cell-free
Acetylcholinesterase [8] = target: T2, Acetylcholinesterase (Homo sapiens, UniProt P22303); assay: Inhibition of human erythrocyte AChE using ATCI and BTCI as substrate preincubated for 5 mins followed by substrate addition and measured after 3 mins by DTNB-reagent based Ellman's method
Acetylcholinesterase [9] = target: T2, Acetylcholinesterase; assay: Inhibition of human erythrocyte AChE at 100 uM using ATCI and BTCI as substrate preincubated for 5 mins followed by substrate addition and measured after 3 mins by DTNB-reagent based Ellman's method relative to control; details: time 8.0 min
[10] = Acute toxicity in Kunming mouse assessed as effect on body weight at 625 to 2500 mg/kg, po measured at 4 to 14 days; format: organism-based; details: in vivo, dose lower 625 mg/kg, time lower 4 day, dose upper 2500 mg/kg, time upper 14 day
PC-12 [11] = assay: Activation of Nrf2-ARE pathway in rat PC-12 cells assessed as upregulation of GPX4 expression level incubated for 8 hrs by Western blot analysis; format: cell-based; details: filed as activator, dose >= 2.0 µM
Cholinesterase [12] = target: T1, Cholinesterase; assay: Mixed type inhibition of human BuChE assessed as inhibition constant using butyrylthiocholine iodide as substrate by lineweaver-burk plot analysis
Mus musculus [13] = assay: Antialzheimer activity in scopolamine-induced cognitive impairment Kunming mouse model assessed as step down latency time at 20 mg/kg, po administered for 1 hr followed by scopolamine induction for 0.5 hr and measured after 5 min (Rvb=36.25 sec); format: functional; details: time 95 min, 1.583 h
[14] = Cytotoxicity against mouse BV-2 cells assessed as cell viability at 10 uM measured after 24 hrs by CCK-8 assay; format: toxicity, cell-based; details: read-out: Activity
PC-12 [15] = assay: Cytotoxicity against rat PC12 cells assessed as cell viability at 0.625 to 10 uM measured after 24 hrs by CCK-8 assay; format: toxicity, cell-based; details: pc-12, 24 h, dose 0.625-10 µM
[16] = Acute toxicity in Kunming mouse at >= 2500 mg/kg, IG measured for 14 days; format: organism-based; details: in vivo, po, 336 h, time 14 day
Mus musculus [17] = assay: Antialzheimer activity in scopolamine-induced cognitive impairment Kunming mouse model assessed as number of errors in step down test at 80 mg/kg, po administered for 1 hr followed by scopolamine induction for 0.5 hr and measured after 5 min; format: functional; details: time 95 min, 1.583 h
[18] = Acute toxicity in Kunming mouse assessed as abnormalities in lung at 2500 mg/kg, po measured on day 14 by H and E staining based histopathological analysis; format: organism-based; details: in vivo, 336 h, time 14 day
[19] = Acute toxicity in Kunming mouse assessed as abnormalities in brain at 2500 mg/kg, po measured on day 14 by H and E staining based histopathological analysis; format: organism-based; details: in vivo, 336 h, time 14 day
Mus musculus [20] = assay: Antialzheimer activity in scopolamine-induced cognitive impairment Kunming mouse model assessed as step down latency time at 80 mg/kg, po administered for 1 hr followed by scopolamine induction for 0.5 hr and measured after 5 min; format: functional; details: time 95 min, 1.583 h
[21] = Acute toxicity in Kunming mouse assessed as abnormalities in kidney at 2500 mg/kg, po measured on day 14 by H and E staining based histopathological analysis; format: organism-based; details: in vivo, 336 h, time 14 day
PC-12 [22] = assay: Activation of Nrf2-ARE pathway in rat PC-12 cells assessed as increase in Nrf2 expression level incubated for 4 to 8 hrs by Western blot analysis; format: cell-based; details: filed as activator, dose >= 2.0 µM, time 4-8 hrs
[23] = Acute toxicity in Kunming mouse assessed as abnormalities in liver at 2500 mg/kg, po measured on day 14 by H and E staining based histopathological analysis; format: organism-based; details: in vivo, 336 h, time 14 day
PC-12 [24] = assay: Activation of Nrf2-ARE pathway in rat PC-12 cells assessed as upregulation of NQO1 expression level incubated for 8 hrs by Western blot analysis; format: cell-based; details: filed as activator, dose >= 2.0 µM
PC-12 [25] = assay: Activation of Nrf2-ARE pathway in rat PC-12 cells assessed as increase in Nrf2 expression level in nucleus at 1 uM by Western blot analysis; format: cell-based; details: filed as activator, time >= 8.0 hrs, TDE = time-dependent effect
Mus musculus [26] = assay: Antialzheimer activity in scopolamine-induced cognitive impairment Kunming mouse model assessed as number of errors in step down test at 20 mg/kg, po administered for 1 hr followed by scopolamine induction for 0.5 hr and measured after 5 min (Rvb=2.2); format: functional; details: time 95 min, 1.583 h
[27] = Selectivity index, ratio of IC50 for inhibition of human erythrocyte AChE to inhibition of human serum BuChE

T1 sequence (P06276 whole entry): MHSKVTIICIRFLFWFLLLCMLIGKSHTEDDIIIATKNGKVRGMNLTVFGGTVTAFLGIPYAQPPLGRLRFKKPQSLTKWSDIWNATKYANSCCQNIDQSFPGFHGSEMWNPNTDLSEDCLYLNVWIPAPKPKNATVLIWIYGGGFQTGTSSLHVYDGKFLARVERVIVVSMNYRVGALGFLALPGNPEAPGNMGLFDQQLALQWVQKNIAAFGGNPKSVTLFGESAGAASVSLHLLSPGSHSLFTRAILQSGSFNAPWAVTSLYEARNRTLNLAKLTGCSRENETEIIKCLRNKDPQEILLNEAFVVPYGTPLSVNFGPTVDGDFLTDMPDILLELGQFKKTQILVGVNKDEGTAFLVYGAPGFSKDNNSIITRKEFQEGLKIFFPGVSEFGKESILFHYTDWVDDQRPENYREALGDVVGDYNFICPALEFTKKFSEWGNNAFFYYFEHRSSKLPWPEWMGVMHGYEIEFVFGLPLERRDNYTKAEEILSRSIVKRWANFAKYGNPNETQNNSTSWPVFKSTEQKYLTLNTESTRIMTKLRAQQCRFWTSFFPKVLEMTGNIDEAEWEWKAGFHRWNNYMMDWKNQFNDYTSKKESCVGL
Chain of Acetylcholinesterase (Electrophorus electricus, UniProt O42275) (O42275 whole entry): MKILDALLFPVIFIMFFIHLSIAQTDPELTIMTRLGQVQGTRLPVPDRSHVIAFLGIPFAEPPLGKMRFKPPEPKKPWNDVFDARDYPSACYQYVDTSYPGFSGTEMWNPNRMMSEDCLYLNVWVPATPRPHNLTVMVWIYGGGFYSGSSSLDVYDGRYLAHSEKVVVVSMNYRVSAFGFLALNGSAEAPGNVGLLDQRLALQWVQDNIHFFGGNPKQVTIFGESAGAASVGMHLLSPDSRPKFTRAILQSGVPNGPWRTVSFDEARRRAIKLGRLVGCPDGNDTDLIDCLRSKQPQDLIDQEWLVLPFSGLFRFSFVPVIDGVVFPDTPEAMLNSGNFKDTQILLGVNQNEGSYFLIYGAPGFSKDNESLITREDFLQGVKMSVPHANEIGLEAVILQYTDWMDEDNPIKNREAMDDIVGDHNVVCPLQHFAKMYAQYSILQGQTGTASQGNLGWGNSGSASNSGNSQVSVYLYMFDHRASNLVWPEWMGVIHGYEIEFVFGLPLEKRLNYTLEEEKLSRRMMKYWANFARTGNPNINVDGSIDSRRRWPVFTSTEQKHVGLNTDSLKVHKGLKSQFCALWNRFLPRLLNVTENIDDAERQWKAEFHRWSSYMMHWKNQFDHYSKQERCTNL
T2 sequence (P22303 whole entry): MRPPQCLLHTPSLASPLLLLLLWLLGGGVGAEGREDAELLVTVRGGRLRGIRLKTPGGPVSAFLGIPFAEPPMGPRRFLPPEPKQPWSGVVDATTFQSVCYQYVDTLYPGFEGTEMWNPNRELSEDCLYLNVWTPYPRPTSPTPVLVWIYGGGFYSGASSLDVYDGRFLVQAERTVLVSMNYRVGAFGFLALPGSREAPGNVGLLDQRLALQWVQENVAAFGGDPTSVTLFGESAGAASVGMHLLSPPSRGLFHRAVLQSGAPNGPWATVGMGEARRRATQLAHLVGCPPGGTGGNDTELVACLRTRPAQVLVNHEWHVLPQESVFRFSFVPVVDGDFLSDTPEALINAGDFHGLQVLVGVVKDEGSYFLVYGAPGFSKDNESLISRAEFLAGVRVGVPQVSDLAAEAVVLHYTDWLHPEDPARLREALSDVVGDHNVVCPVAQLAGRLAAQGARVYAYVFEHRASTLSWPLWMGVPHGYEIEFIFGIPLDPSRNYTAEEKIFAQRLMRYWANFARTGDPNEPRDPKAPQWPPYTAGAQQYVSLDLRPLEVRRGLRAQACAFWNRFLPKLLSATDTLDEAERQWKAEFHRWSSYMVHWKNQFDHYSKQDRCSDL
Chain of Cholinesterase (Equus caballus, UniProt P81908) (P81908 whole entry): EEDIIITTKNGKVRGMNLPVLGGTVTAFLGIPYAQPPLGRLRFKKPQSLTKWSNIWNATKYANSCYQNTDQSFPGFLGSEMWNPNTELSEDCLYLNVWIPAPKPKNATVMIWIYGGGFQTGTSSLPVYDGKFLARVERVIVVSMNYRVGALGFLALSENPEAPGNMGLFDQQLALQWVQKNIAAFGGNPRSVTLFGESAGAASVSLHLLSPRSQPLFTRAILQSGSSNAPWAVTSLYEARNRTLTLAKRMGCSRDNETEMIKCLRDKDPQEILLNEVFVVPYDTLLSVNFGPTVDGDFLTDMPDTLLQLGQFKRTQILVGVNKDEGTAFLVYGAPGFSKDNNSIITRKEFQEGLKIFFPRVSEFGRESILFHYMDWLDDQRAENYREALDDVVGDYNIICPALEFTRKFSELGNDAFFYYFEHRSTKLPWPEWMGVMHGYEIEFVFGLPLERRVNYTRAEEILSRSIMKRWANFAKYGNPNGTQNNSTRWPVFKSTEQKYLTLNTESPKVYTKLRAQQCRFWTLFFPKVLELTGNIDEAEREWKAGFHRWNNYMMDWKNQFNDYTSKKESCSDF
Chain of Acetylcholinesterase (Electrophorus electricus) (O42275 24-633 limits assumed): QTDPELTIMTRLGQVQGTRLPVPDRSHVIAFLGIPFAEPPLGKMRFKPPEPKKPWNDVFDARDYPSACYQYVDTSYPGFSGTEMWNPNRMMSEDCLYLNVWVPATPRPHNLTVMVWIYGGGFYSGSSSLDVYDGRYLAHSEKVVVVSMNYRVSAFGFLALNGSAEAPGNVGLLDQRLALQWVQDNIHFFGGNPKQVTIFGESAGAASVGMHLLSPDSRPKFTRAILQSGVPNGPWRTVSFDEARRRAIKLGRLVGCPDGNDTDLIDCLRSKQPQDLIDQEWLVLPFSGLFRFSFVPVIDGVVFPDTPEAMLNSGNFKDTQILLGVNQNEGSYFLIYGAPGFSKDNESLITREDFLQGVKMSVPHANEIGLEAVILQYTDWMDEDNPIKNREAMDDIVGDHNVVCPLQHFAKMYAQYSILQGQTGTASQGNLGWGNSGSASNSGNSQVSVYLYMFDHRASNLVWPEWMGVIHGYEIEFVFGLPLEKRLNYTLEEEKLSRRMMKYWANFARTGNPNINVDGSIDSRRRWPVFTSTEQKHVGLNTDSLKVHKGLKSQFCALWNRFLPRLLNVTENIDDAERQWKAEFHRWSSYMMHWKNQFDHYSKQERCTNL

SMILES	Activity [1]	pIC50 (Acetylcholinesterase [2])	pIC50 (Cholinesterase [3])	Ratio IC50 [6]	Papp at 18 h (in vitro)	pIC50 (Cholinesterase [7])	pIC50 (Acetylcholinesterase [8])	also measured
COc1ccc2c(c1)c(C=O)cn2CCCCCN(C)Cc1cccc(O)c1	0.2 equiv	5.15	4.34					
COc1ccc2c(c1)c(C=O)cn2CCCN(C)Cc1cccc(O)c1	0.37 equiv		4.14					Selectivity Index [4]: > 1; inhibition [5]: 48.1%
COc1ccc2c(c1)c(C=O)cn2CCCCCCCCN(C)Cc1ccc(O)cc1	0.28 equiv	5.75	6.35	4.2	4.62 ×10⁻⁶ cm/s	6.31	5.69	
COc1ccc2c(c1)c(C=O)cn2CCCCCCCCCN(C)Cc1cccc(O)c1	< 0.01 equiv	5.47	5.79	2.2		5.63	5.28	
COc1ccc(CN(C)CCCCCCCCCCCCn2cc(C=O)c3cc(OC)ccc32)cc1	< 0.01 equiv	4.10	5.26	233	4.09 ×10⁻⁶ cm/s	6.37		inhibition (Acetylcholinesterase [9]): 46.1%
COc1ccc2c(c1)c(C=O)cn2CCCCN(C)Cc1ccc(O)cc1	0.91 equiv	4.19	4.70					
CN(CCCCCCCCCCCCn1cc(C=O)c2cc(O)ccc21)Cc1cccc(O)c1	5.13 equiv	4.16	5.67	148	9.98 ×10⁻⁶ cm/s	5.92	3.75	Activity [10]: Non-Toxic; Activity (PC-12 [11]): Dose-Dependent Effect; pKi (Cholinesterase [12]): 5.75; Time (Mus musculus [13]): 17.6 s; viability at 24 h, 10 µM [14]: > 50%; Activity (PC-12 [15]): Non-Toxic; Activity [16]: Non-Toxic; Activity (Mus musculus [17]): 0.6; Activity [18]: Non-Toxic; Activity [19]: Non-Toxic; Time (Mus musculus [20]): 233 s; Activity [21]: Non-Toxic; Activity (PC-12 [22]): Dose-Dependent Effect; Activity [23]: Non-Toxic; Activity (PC-12 [24]): Dose-Dependent Effect; Activity (PC-12 [25]): Tde; Activity (Mus musculus [26]): 2.5
COc1ccc2c(c1)c(C=O)cn2CCCCCCCCCCN(C)Cc1ccc(O)cc1	0.05 equiv	5.83	6.92	3.16	5.46 ×10⁻⁶ cm/s	6.72	6.22	
COc1ccc2c(c1)c(C=O)cn2CCCCCCCCCCCCCCN(C)Cc1cccc(O)c1	< 0.01 equiv	4.50	5.06					
COc1ccc2c(c1)c(C=O)cn2CCCCCCCCCCCCN(C)Cc1ccc(OC)c(OC)c1	< 0.01 equiv	4.29	6.06		5.27 ×10⁻⁶ cm/s			
C[C@]12CC[C@@H]3c4ccc(O)cc4CC[C@H]3[C@@H]1CC[C@@H]2O [ESTRADIOL]					14.1 ×10⁻⁶ cm/s			
COc1ccc2c(c1)c(C=O)cn2CCCCCCCCCCCCN(C)Cc1cccc(O)c1	< 0.01 equiv	4.56	6.51	510	4.71 ×10⁻⁶ cm/s	6.82	4.12	
COc1cccc(CN(C)CCCCCCCCCCCCn2cc(C=O)c3cc(OC)ccc32)c1	< 0.01 equiv	4.16	6.37		1.82 ×10⁻⁶ cm/s	5.26		Selectivity Index [27]: > 200; inhibition (Acetylcholinesterase [9]): 46.1%

— ChEMBL document CHEMBL5236653, “Dual functional antioxidant and butyrylcholinesterase inhibitors for the treatment of Alzheimer's disease: Design, synthesis and evaluation of novel melatonin-alkylbenzylamine hybrids” (Bioorg Med Chem, 2023)
